Experiments:
Format in all cases: biochemical
Conditions in all cases: 10 nM JAK enzyme, 800 nM Abl peptide, room temperature 75 min
JAK1 = JAK1 (Homo sapiens, UniProt P23458); assay: JAK assay (KINASE-GLO luminescent kinase assay), JAK1
Experimental: (§1) All compounds were initially prepared as 10 mM stocks in anhydrous dimethylsulfoxide (DMSO). A 20 μL aliquot of the 10 mM solutions was transferred to individual wells in column 1 of a 96-well polypropylene microtiter plate (Corning #3363) and diluted with DMSO to give a final compound concentration of 4 mM. Test compounds were then serially diluted 1:5 in DMSO for an 11-point concentration response and further diluted in the assay buffer bringing all compound concentrations to a final range of 100 μM to 10 pM in 2.5% DMSO. The assay was performed in white 96-well, flat-bottom, half-area, non-binding assay plate (Corning #3642) in assay buffer consisting of 20 mM HEPES (pH 7.5), 10 mM MgCl2*6H2O, 100 μM sodium orthovanadate, 0.05% CHAPS and 0.1% bovine serum albumin. A 10 μL aliquot of compound from each well of the intermediate dilution plate and 20 μL of a 2×JAK substrate/enzyme solution containing acceptor substrate (800 nM Abl peptide), JAK enzyme (10 nM JAK1, JAK2, JAK3, or TYK2), and 1,4-Dithiothreitol (DTT, 2 μM) were added to all wells. The reaction was initiated by the addition of 10 μL of 4× stock solution ATP (2 μM). Reactions were thoroughly mixed manually, covered and allowed to incubate at room temperature for 75 min. Protein kinase activity was quantitated using Promega's KINASE-GLO™ luminescent Kinase Assay Kit according to the manufacturer's directions. ATP concentrations remaining in Test wells following the termination of the enzymatic reaction were compared against control wells containing equivalent amounts of DMSO containing no inhibitor (CTRL). […] Percent of Control (POC) values were determined for each concentration of compound tested according to the equation:
(§2) [formula] • IC50 values were calculated using the following 4-parameter logistic curve-fitting algorithm:
(§3) [formula] • IC50 values were converted to Ki values using the Cheng-Prusoff Equation: […]

JAK3 = molecular target: T1, JAK3 (Homo sapiens, UniProt P52333); assay: JAK assay (KINASE-GLO luminescent kinase assay), JAK3
T1 sequence (P52333 1-1124): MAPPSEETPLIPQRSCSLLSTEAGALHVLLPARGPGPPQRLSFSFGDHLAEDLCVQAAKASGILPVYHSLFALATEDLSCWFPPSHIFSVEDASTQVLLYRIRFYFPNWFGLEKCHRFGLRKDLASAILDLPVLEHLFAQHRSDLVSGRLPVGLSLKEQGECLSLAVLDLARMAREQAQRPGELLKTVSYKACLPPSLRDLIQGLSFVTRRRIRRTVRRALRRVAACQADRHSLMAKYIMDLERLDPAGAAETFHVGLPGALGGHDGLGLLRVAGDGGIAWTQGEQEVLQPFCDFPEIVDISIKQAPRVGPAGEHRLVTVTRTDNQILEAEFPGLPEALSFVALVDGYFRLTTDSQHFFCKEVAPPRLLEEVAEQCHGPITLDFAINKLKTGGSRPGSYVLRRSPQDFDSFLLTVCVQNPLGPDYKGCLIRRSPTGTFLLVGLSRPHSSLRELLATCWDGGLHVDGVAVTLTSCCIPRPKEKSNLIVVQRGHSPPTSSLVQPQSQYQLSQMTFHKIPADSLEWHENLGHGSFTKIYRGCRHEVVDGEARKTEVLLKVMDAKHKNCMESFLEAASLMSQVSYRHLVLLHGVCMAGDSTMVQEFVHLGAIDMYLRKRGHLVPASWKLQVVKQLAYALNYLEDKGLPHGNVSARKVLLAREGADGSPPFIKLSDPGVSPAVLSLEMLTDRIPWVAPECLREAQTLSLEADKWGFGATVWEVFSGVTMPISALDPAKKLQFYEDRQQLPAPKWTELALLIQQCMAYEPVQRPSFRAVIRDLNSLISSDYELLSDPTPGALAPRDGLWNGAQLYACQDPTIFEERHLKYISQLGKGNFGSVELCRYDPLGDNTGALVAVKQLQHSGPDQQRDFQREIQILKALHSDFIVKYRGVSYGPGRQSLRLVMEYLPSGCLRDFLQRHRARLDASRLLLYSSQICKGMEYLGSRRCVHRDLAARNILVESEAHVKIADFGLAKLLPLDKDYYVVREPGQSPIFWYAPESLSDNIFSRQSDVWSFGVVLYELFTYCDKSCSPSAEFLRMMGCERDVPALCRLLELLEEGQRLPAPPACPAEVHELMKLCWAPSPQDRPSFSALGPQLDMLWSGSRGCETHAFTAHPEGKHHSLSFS
Experimental: as §1, §2, §3

TYK2 = TYK2 (Homo sapiens, UniProt P29597); assay: JAK assay (KINASE-GLO luminescent kinase assay), TYK2
TYK2, sequence (P29597 whole entry): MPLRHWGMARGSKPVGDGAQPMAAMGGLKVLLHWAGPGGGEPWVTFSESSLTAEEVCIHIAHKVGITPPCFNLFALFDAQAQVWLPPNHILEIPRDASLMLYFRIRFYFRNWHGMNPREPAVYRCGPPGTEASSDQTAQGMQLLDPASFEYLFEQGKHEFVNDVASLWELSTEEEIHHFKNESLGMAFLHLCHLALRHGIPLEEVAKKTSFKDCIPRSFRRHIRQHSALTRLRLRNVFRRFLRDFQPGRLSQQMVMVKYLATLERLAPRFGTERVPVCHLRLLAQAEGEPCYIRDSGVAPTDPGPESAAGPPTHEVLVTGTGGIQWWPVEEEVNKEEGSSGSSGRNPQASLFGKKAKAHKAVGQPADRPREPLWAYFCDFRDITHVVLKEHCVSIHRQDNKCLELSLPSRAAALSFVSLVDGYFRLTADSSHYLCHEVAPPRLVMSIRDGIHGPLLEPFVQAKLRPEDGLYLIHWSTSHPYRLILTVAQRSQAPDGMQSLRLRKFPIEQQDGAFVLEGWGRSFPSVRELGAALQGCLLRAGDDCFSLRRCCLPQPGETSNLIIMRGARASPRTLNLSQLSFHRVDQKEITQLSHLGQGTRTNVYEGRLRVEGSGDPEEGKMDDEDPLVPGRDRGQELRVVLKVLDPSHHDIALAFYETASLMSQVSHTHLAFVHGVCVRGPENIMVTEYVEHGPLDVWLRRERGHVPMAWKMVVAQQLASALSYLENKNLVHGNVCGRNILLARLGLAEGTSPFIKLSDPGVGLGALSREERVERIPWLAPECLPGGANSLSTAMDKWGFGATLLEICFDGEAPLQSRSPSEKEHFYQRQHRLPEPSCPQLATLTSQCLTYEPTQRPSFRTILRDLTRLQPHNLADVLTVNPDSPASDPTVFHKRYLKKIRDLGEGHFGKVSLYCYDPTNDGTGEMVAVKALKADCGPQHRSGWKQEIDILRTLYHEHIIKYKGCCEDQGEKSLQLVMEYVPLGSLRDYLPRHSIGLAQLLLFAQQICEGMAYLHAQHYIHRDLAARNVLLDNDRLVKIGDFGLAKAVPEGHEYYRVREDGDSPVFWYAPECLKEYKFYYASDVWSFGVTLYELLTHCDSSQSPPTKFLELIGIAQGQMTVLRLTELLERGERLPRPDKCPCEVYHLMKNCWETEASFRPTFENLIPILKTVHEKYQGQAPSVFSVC
Experimental: as §1, with “A 20 μL aliquot of the 10 mM solutions was transferred to individual wells in column 1 of a 96-well polypropylene microtiter plate (Corning #3363) and diluted with DMSO to give a final compound concentration of 4 mM.” left out
as §2, §3

JAK2 = JAK2 (Homo sapiens, UniProt O60674); assay: JAK assay (KINASE-GLO luminescent kinase assay), JAK2
JAK2, sequence (O60674 whole entry): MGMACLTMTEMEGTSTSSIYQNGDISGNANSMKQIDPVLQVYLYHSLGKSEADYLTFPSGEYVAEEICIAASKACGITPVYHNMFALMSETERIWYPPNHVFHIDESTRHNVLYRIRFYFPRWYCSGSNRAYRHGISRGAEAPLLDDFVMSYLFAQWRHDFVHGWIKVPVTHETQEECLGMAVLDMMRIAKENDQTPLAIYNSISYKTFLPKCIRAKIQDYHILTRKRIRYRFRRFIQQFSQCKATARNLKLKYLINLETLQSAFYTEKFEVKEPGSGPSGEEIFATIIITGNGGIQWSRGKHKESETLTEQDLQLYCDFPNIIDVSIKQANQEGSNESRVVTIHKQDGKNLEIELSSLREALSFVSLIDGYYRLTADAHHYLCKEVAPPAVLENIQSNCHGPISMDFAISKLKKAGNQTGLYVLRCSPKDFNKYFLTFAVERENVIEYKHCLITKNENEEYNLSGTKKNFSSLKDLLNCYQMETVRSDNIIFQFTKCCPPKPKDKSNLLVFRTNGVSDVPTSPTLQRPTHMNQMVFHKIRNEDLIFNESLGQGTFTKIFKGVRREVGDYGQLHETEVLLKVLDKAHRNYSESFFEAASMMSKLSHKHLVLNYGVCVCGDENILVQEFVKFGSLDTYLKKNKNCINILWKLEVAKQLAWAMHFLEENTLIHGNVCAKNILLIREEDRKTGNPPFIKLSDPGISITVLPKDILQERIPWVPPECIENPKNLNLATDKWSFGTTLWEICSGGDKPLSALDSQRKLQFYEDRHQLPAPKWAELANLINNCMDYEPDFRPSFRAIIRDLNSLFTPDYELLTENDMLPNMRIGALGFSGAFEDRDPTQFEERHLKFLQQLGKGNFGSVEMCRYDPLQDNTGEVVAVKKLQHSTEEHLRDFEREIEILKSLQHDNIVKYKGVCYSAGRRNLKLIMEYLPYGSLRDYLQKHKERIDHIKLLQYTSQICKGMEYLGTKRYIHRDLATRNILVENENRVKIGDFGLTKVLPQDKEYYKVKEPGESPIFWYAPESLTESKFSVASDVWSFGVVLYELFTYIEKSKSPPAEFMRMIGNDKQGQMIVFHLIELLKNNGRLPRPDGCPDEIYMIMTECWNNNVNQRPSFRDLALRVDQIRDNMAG
Experimental: as §1, §2, §3

JAK1, sequence (P23458 whole entry): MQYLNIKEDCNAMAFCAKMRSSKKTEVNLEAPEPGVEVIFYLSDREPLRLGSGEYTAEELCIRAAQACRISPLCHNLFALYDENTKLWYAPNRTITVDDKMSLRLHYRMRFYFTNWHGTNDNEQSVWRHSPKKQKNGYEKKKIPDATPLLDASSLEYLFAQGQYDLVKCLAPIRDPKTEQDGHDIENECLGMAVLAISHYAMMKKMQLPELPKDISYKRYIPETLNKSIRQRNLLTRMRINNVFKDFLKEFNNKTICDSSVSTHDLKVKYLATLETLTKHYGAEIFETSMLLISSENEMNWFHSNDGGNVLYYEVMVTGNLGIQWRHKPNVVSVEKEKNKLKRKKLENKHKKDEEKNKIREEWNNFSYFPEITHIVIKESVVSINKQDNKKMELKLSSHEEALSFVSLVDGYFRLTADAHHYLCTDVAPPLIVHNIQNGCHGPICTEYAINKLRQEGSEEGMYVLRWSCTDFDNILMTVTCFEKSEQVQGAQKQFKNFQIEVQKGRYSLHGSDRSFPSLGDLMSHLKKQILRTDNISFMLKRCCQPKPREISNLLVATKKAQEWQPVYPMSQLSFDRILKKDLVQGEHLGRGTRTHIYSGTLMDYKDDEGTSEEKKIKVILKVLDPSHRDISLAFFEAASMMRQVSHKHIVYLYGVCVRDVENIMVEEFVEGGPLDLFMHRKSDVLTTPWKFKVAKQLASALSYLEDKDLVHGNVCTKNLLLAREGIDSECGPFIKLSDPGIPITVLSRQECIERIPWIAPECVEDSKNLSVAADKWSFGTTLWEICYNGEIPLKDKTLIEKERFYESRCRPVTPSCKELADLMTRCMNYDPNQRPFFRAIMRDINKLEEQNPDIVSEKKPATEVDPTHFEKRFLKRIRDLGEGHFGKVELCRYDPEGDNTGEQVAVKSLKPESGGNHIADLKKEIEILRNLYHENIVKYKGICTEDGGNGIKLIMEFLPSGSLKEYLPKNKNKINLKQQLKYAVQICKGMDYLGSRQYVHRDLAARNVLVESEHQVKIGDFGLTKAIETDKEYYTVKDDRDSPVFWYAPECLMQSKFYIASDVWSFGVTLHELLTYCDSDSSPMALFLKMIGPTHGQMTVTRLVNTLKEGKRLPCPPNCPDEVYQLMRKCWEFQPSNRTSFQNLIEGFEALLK

| SMILES | IC50 (JAK1) | IC50 (JAK3) | IC50 (TYK2) | IC50 (JAK2) |
| --- | --- | --- | --- | --- |
| Cc1cnc(NCCCN2CCOCC2)nc1-c1cnn(CCC#N)c1 [CC1═C(N═C(NCCCN2CCOCC2)N═C1)C3═C[N]] | > 50000 nM | > 50000 nM | < 100000 nM | < 100000 nM |
| Cc1cnc(NCCN2CCCCC2)nc1-c1cnn(CCC#N)c1 [CC1═C(N═C(NCCN2CCCCC2)N═C1)C3═C[N]] | > 50000 nM | > 50000 nM | > 50000 nM | > 50000 nM |
| Cc1cnc(NCCO)nc1-c1cnn(CCC#N)c1 [CC1═C(N═C(NCCO)N═C1)C2═C[N]] | < 100000 nM | < 100000 nM | < 100000 nM | < 100000 nM |
| C=CCNc1ncc(C)c(-c2cnn(CCC#N)c2)n1 [CC1═C(N═C(NCC═C)N═C1)C2═C[N]] | < 100000 nM | < 100000 nM | < 100000 nM | < 100000 nM |
| Cc1cnc(N2CCCCC2)nc1-c1cnn(CCC#N)c1 [CC1═C(N═C(N═C1)N2CCCCC2)C3═C[N]] | > 50000 nM | > 50000 nM | > 50000 nM | > 50000 nM |
| Cc1cc(Nc2ncc(Cl)c(-c3cnn(CCC#N)c3)n2)no1 [CC1═CC(═NO1)NC2═NC(═C] | < 1000 nM | < 1000 nM | < 100 nM | < 100 nM |
| Cc1ccc(Nc2ncc(C)c(-c3cnn(CC4(Cl)CC4)c3)n2)cc1S(C)(=O)=O [CC1═CC═C(NC2═NC(═C(C)C═N2)C3═C[N]] | < 100 nM | < 100 nM | < 100 nM | < 100 nM |
| Cc1cncc(Nc2ncc(C)c(-c3cnn(CC4(CF)CCC4)c3)n2)c1 [CC1═CN═CC(═C1)NC2═NC(═C] | < 100 nM | < 100 nM | < 100 nM | < 10 nM |
| Cc1cc(Nc2ncc(C)c(-c3cnn(CC4(CF)CCC4)c3)n2)ccn1 [CC1═NC═CC(═C1)NC2═NC(═C] | < 1000 nM | < 100 nM | < 100 nM | < 10 nM |
| Cc1cc(Nc2ncc(Cl)c(-c3cnn(CCC#N)c3)n2)on1 [CC1═NOC(═C1)NC2═NC(═C] | < 100 nM | < 1000 nM | < 100 nM | < 10 nM |
| Cc1cc(Nc2nc3c(c(-c4cnn(CC5(C#N)COC5)c4)n2)CN(C(=O)OC(C)(C)C)C3)sn1 [CC1═NSC(═C1)NC2═NC(═C3CN] | > 50000 nM | > 50000 nM | > 50000 nM | > 50000 nM |
| Cc1cc(Nc2ncc(C)c(-c3cnn(CC4(CF)CCC4)c3)n2)sn1 [CC1═NSC(═C1)NC2═NC═C(C)C] | < 10 nM | < 10 nM | < 10 nM | < 10 nM |
| CC(C)(C)OC(=O)N1CC(C#N)(Cn2cc(-c3nc(Nc4ccc(C(N)=O)cc4)ncc3Cl)cn2)C1 [CC(C)(C)OC(═O)N1CC(C1)(C[N]2C═C] | < 100 nM | < 100 nM | < 100 nM | < 10 nM |
| CC(C)(C)OC(=O)N1CC(CF)(Cn2cc(-c3nc(Nc4ccc(C(N)=O)cc4)ncc3Cl)cn2)C1 [CC(C)(C)OC(═O)N1CC(CF)(C1)C[N]2C═C] | < 100 nM | < 100 nM | < 100 nM | < 100 nM |
| CC(C)(C)OC(=O)N1CC(CO)(Cn2cc(-c3nc(Nc4ccc(C(N)=O)cc4)ncc3Cl)cn2)C1 [CC(C)(C)OC(═O)N1CC(CO)(C1)C[N]2C═C] | < 1000 nM | < 100 nM | < 1000 nM | < 100 nM |
| CC(C)(C)OC(=O)N1CCC(Nc2ncc(Cl)c(-c3cnn(CCC#N)c3)n2)C(F)(F)C1 (stereo not drawn) [CC(C)(C)OC(═O)N1CCC(NC2═NC(═C] | > 50000 nM | > 50000 nM | > 50000 nM | > 50000 nM |
| CC(C)(C)OC(=O)N1CCN(c2ccc(Nc3ncc(Cl)c(-c4cnn(CCC#N)c4)n3)cc2)CC1 [CC(C)(C)OC(═O)N1CCN(CC1)C2═CC═C] | < 100 nM | < 10 nM | < 10 nM | < 10 nM |
| CC(C)(C)OC(=O)NCc1cccc(Nc2ncc(Cl)c(-c3cnn(CC4(CF)CC4)c3)n2)c1 [CC(C)(C)OC(═O)NCC1═CC═CC] | 157 nM | < 10 nM | < 100 nM | < 100 nM |
| CC(=O)OCCc1ccc(Nc2ncc(Cl)c(-c3cnn(CCC#N)c3)n2)cc1 [CC(═O)OCCC1═CC═C(NC2═NC(═C] | < 100 nM | < 100 nM | < 10 nM | < 10 nM |
| CCc1cnc(Nc2cc(C)ns2)nc1-c1cnn(CC2(Cl)CC2)c1 [CCC1═C(N═C(NC2═CC] | < 100 nM | < 10 nM | < 100 nM | < 10 nM |
| CCS(=O)(=O)N1CC(CF)(Cn2cc(-c3nc(Nc4cc(C)ns4)ncc3Cl)cn2)C1 [CC[S](═O)(═O)N1CC(CF)(C[N]2C═C] | < 100 nM | < 100 nM | < 100 nM | < 10 nM |
| CCS(=O)(=O)N1CC(CO)(Cn2cc(-c3nc(Nc4cc(C)ns4)ncc3Cl)cn2)C1 [CC[S](═O)(═O)N1CC(CO)] | < 1000 nM | < 100000 nM | < 100000 nM | < 1000 nM |
| Cn1ccc(Nc2ncc(Cl)c(-c3cnn(CC4(C#N)COC4)c3)n2)cc1=O [CN1/C═C\C(═C/C1═O)NC2═NC(═C] | < 1000 nM | < 1000 nM | < 1000 nM | < 10 nM |
| Cc1cnc(Nc2ccc3c(c2)C(=O)N(C)C3=O)nc1-c1cnn(CC2(Cl)CC2)c1 [CN1C(═O)C2═C(C═C(NC3═NC(═C] | < 1000 nM | < 100 nM | < 100 nM | < 10 nM |
| Cc1cnc(Nc2ccc3c(c2)CN(C)C3)nc1-c1cnn(CC2(CF)CC2)c1 [CN1CC2═CC═C(NC3═NC(═C] | < 10 nM | < 10 nM | < 10 nM | < 10 nM |
| Cc1cc(Nc2ncc(C)c(-c3cnn(CC4(CF)CC4)c3)n2)ccc1N1CCN(C)CC1 [CN1CCN(CC1)C2═C(C)C═C(NC3═NC] | < 100 nM | < 10 nM | < 10 nM | < 10 nM |
| Cc1cnc(Nc2ccc(N3CCN(C)CC3)cc2)nc1-c1cnn(CC2(C#N)CC2)c1 [CN1CCN(CC1)C2═CC═C(NC3═NC(═C(C([2H])] | < 100 nM | < 10 nM | < 10 nM | < 10 nM |

Source: patent US20250236611A1, “PYRAZOLE COMPOUNDS AND USES THEREOF” (ALCON INC., priority 2021, published 2025)
